Here are results for six molecules from patent US11655201B2, “Method for preparing 2-tert-butyl-4-methoxyphenol and new crystal form thereof” (BIOMEDICAL ANALYSIS CENTER, ACADEMY OF MILITARY MEDICAL …, priority 2017, dated 2023).

Values joined by “and” are separate entries in the source; they are usually repeats but may differ in a detail not shown here. Equal values may be shown once.

The nature of data set [1]: Accelerated stability test for formulation (tablets). The following applies: conclusion from Tables 3 and 4. The class given is physicochemical. How it is done: (§1) An accelerated stability test for bulk drug was carried out directly from the crystal powder. An accelerated stability test for formulation was carried out on tablets.
Preparation process of formulation: form A of 2-tert-butyl-4-methoxyphenol (2-BHA) (form A of 2-BHA prepared in Example 4), microcrystalline cellulose, lactose and other auxiliary materials respectively were screened through 100 mesh, respectively for use. The prescription amount of form A of 2-tert-butyl-4-methoxyphenol, microcrystalline cellulose, lactose and other auxiliary materials were fully mixed according to the equal volume addition method. The above mixture was added to an aqueous solution of 2-3% polyvinylpyrrolidone under stirring, to obtain a soft material, which was screened through a 20-mesh sieve. The tablet weight regulator was adjusted to make the tablet weight being 250±10 mg, the hardness being 60-80 N, and then the tablet was compressed. After screening for dissolution, homogeneity and reproducibility and the like, the prescription was determined and 3 batches of samples were prepared.

A short description of data set [2]: Pharmacokinetic evaluation of 2-BHA of form A in rats by intragastric administration.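 Note: plasma concentration in ng/mL.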 The following applies: 100 mg/kg intragastric, individual rats 1♂-6♀. It counts as in vivo, SD rats. The procedure: SD rats, half male and half female, fasted overnight, 6 rats/group, were given 2-tert-butyl-4-methoxyphenol suspended in Tween 80 (2-BHA of form A prepared by Example 4) by intragastric administration, the dose being 100 mg/kg body weight. […]

A short description of data set [3]: Plasma concentration after intragastric administration in mice. It counts as in vivo.
Data set [4] in a line: Accelerated stability test for bulk drug. The following applies: for Appearance / Content / Related substance: bulk drug, 40° C.±2° C., RH 75%±5%. The class given is physicochemical. How it is done: as §1
Data set [5] has as its system differentiation of monocytes into M2 macrophages. The following applies: by inhibiting production of ROS; Cell Research 2013, 23:898-914; cited from earlier work.
Data set [6] has as its system lung cancer in K-ras^LA2 model mice. The following applies: Cell Research 2013, 23:898-914; cited from earlier work.
Data set [7] in a line: Drug metabolism experiments (in vivo half-life). The procedure:
(§2) At the same time, it was found through drug metabolism experiments that the in vivo half-life of BHA was very short, only 30-60 minutes. […] Therefore, combining with the research results of literature on the metabolites of 2-tert-butyl-4-methoxyphenol (with DNA damaging effects, Food and Chemical Toxicology 1999, 37: 1027-1038), it can be inferred that 2-tert-butyl-4-methoxyphenol itself has an anti-tumor effect, and the interaction of its metabolite tert-butylhydroquinone (TBHQ) with DNA may be the cause of its side effects. BHA has the potential to be developed into a drug.

The subject of data set [8] is lung cancer and breast cancer. The following applies: mouse models with lung cancer and breast cancer; CN 201610037849.5; cited from earlier work.
Data set [9] in a line: Comparative study of antioxidant activity, 2-BHA vs 3-BHA. The following applies: ratio to 3-BHA. From the text: (§3) However, the existing commercial BHA products are all mixtures of 2-tert-butyl-4-methoxyphenol (2-BHA) and 3-tert-butyl-4-methoxyphenol (3-BHA), with a content ratio of approximately 9:1-50:1. The inventors comparatively studied the antioxidant activities and macrophage polarization regulation activities of 2-tert-butyl-4-methoxyphenol and 3-tert-butyl-4-methoxyphenol. […] Therefore, the development of 2-tert-butyl-4-methoxyphenol as a medicine still needs to improve the purity.

The test system of a further data set is mice. Kind of data set: Toxicology experiments in mice. The class given is in vivo. The procedure:
as §2

For data set [10] the following is noted: early studies, literature; cited from earlier work.
For another data set, the system named is macrophage polarization. Kind of data set: Comparative study of macrophage polarization regulation activity, 2-BHA vs 3-BHA. The class given is cell-based. The following applies: ratio to 3-BHA.
From the text: as §3

In data set [11] the test system is M2 polarization of macrophages. The following applies: CN 201610037849.5; cited from earlier work.
[12] abbreviates: 600 mg/kg administration in mice.
Setting [13] is: 1100 mg/kg administration in mice.

For the molecule `COc1ccc(O)c(C(C)(C)C)c1` [2-BHA of form A, 2-tert-butyl-4-methoxyphenol], the “stability during the preparation process” value in data set [1] is reported as “better stability”. The plasma concentration in [2] (5 min after administration, female rats) is 80.026 ng/mL and 165.939 ng/mL and 77.996 ng/mL; in data set [2] (5 min after administration, male rats), 159.617 ng/mL and 125.112 ng/mL and 147.531 ng/mL; in data set [2] (30 min, female rats), 157.878 ng/mL and 371.466 ng/mL and 240.870 ng/mL; in data set [2] (30 min, male rats), 694.651 ng/mL and 489.006 ng/mL and 359.028 ng/mL; in data set [2] (1 h, female rats), 504.084 ng/mL and 603.120 ng/mL and 643.208 ng/mL; in data set [2] (1 h, male rats), 560.980 ng/mL and 570.039 ng/mL. The plasma concentration in data set [2] (2 h, female rats) was 687.296 ng/mL and 410.399 ng/mL and 199.206 ng/mL; in data set [2] (2 h, male rats) it was 267.167 ng/mL and 267.234 ng/mL and 312.997 ng/mL; in [2] (4 h, female rats) it was 283.840 ng/mL and 205.532 ng/mL and 146.191 ng/mL; in data set [2] (4 h, male rats), 192.535 ng/mL and 63.401 ng/mL and 86.609 ng/mL; in [2] (8 h, female rats), 78.447 ng/mL and 42.984 ng/mL and 121.700 ng/mL; in data set [2] (8 h, male rats) it was 117.919 ng/mL and 27.328 ng/mL and 192.532 ng/mL. Further, the plasma concentration result is “BLLOQ” in data set [2] (24 h, BLLOQ = below the detection limit, female rats) and “BLLOQ” in data set [2] (24 h, BLLOQ = below the detection limit, male rats). For the same molecule, in data set [2] (both sexes, SD, rat, plasma, oral, 100 mg/kg, 1 h), the concentration at 1 h stood at 881 ng/mL. In addition, the “correlation of maximum plasma concentration and AUC with the administration dose” value in data set [3] is given as “better correlation with the administration dose”. In data set [3], the “individual differences in plasma concentration” value is “small individual differences in plasma concentration”. Also, the Appearance entry in [4] (0 month, listed as 20160808) is recorded as “white”; in data set [4] (0 month, listed as 20160904) it was “white”; in data set [4] (0 month, listed as 20160908) it was “white”; in data set [4] (1 month, listed as 20160808) it was “white”; in [4] (1 month, listed as 20160904), “white”; in data set [4] (1 month, listed as 20160908) it was “white”. Moreover, the Appearance result in [4] (2 month, listed as 20160808) is listed as “white”; in data set [4] (2 month, listed as 20160904), “white”; in data set [4] (2 month, listed as 20160908), “white”; in [4] (3 month, listed as 20160808), “white”; in data set [4] (3 month, listed as 20160904), “white”; in data set [4] (3 month, listed as 20160908), “white”. Besides, the Content is recorded as 99.5% in data set [4] (0 month, listed as 20160808); 99.8% in [4] (0 month, listed as 20160904); 99.6% in data set [4] (0 month, listed as 20160908); 99.7% in data set [4] (1 month, listed as 20160808); 99.7% in data set [4] (1 month, listed as 20160904); 99.6% in [4] (1 month, listed as 20160908). Also, the Content in data set [4] (2 month, listed as 20160808) came to 99.4%; in data set [4] (2 month, listed as 20160904), 99.3%; in [4] (2 month, listed as 20160908), 99.5%; in data set [4] (3 month, listed as 20160808), 99.5%; in data set [4] (3 month, listed as 20160904), 99.3%; in data set [4] (3 month, listed as 20160908), 99.6%. In addition, the Related substance in [4] (0 month, listed as 20160808) is reported as 0.34%; in data set [4] (0 month, listed as 20160904), 0.14%; in data set [4] (0 month, listed as 20160908), 0.34%; in [4] (1 month, listed as 20160808), 0.22%; in data set [4] (1 month, listed as 20160904) it was 0.21%; in data set [4] (1 month, listed as 20160908), 0.31%. In addition, the Related substance in data set [4] (2 month, listed as 20160808) was found to be 0.19%; in [4] (2 month, listed as 20160904), 0.39%; in data set [4] (2 month, listed as 20160908), 0.29%; in data set [4] (3 month, listed as 20160808) it was 0.35%; in data set [4] (3 month, listed as 20160904) it was 0.35%; in data set [4] (3 month, listed as 20160908), 0.25%. The “physical and chemical stability compared with commercially available BHA” value in [4] (fluidity, agglomeration, oxidation and colour change in the environment) is “better physical and chemical stability than commercially available BHA”.

`COc1ccc(O)c(C(C)(C)C)c1` [2-tert-butyl-4-methoxyphenol]: the Appearance result in data set [4] (0 month) is “off-white”; in data set [4] (1 month) it was “light yellowish”; in data set [4] (2 month), “light yellowish +”; in data set [4] (3 month), “light yellowish red”. The Content is reported as 98.0% in data set [4] (0 month), 95.1% in data set [4] (1 month), 92.1% in data set [4] (2 month) and 90.2% in data set [4] (3 month). The Related substance in [4] (0 month) was determined as 1.8%; in data set [4] (1 month), 3.9%; in data set [4] (2 month), 8.8%; in data set [4] (3 month) it was 9.3%.

On to `COc1cc(C(C)=O)ccc1O` [Apocynin], for which, in [5], the “effect on differentiation of monocytes into M2 macrophages” value (“effect on differentiation” for short) is “inhibit the differentiation of monocytes into M2 macrophages”. The “effect on occurrence of lung cancer” value in data set [6] was “inhibiting the occurrence of lung cancer”.

The term half-life denotes the time needed for the level to fall by half in the phase considered. Lower therefore signals fast loss. In turn, `COc1ccc(O)c(C(C)(C)C)c1` [BHA, 2-tert-butyl-4-methoxyphenol] registered a half-life in data set [7] of 30 to 60 min. Further, in [8], the anti-tumor effect entry is “anti-tumor proliferation and metastasis effects”. Also, the “antioxidant capacity relative to 3-tert-butyl-4-methoxyphenol” value in [9] is given as 2-3 times. Further, in the data set with mice (setting [12]), the “recovery from central effect” value is listed as “recovered after half an hour” and the toxic effect seen entry is on record as “only part of the “hangover”-like central effect could be seen”. In the data set with mice (setting [13]), the lethality result was “half of the mice were lethal” and the “time until toxic reaction symptoms disappeared in the surviving mice” value lay in the range of 30 to 60 min. In addition, the “toxic effect after long-term administration” value in the data set on mice (long-term low-dose administrations in mice for 2 years) was “no toxic effect”. In data set [10], the carcinogenic effects result was “has carcinogenic effects”. In addition, the “effect on differentiation” value in [5] was “inhibit the differentiation of monocytes into M2 macrophages”. For the same molecule, the “macrophage polarization regulation activity relative to 3-tert-butyl-4-methoxyphenol” value in the data set with macrophage polarization is on record as 5-100 times. Besides, in data set [6], the “effect on occurrence of lung cancer” value was “inhibiting the occurrence of lung cancer”. In data set [11], the “effect on M2 polarization of macrophages” value is listed as “inhibiting the M2 polarization of macrophages”.

As for `CC(=O)N[C@@H](CS)C(=O)O` [NAC], in [5], the “effect on differentiation” value is on record as “inhibit the differentiation of monocytes into M2 macrophages”. Besides, the “effect on occurrence of lung cancer” value in data set [6] is given as “inhibiting the occurrence of lung cancer”.

Consider `CC1(C)CCCC(C)(C)N1[O]` [TEMPO], for which the “effect on differentiation” value in data set [5] is given as “inhibit the differentiation of monocytes into M2 macrophages”. The “effect on occurrence of lung cancer” value in data set [6] is on record as “inhibiting the occurrence of lung cancer”.
